Measurements from the supplement of paper PMC7224384.

Legend:
MDA-MB-453 [1] = test: drug sensitivity score (DSS), single agent (DSS (weighted AUC score)); higher = more sensitive (stronger viability decrease); extreme values may be limits of the assay; conditions: BLU9931 0 nM; 72 h
Summary of the method: (§1)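 Compounds from the FIMM Oncology set were predispensed in singlicate at five 10-fold dilutions (10,000-fold range) on 384-well plates. Each well then received 2000 MDA-MB-453 cells in medium with or without an FGFR4 inhibitor (100 nM final) and was kept at 37 °C, 5% CO2. Cellular ATP was read with CellTiterGlo 2.0 after 72 h and normalised per plate to percent viability from control wells. The drug sensitivity score is a weighted area under a four-parameter logistic fit.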

MDA-MB-453 [2] = test: drug sensitivity score (DSS), in combination with BLU9931 (DSS (weighted AUC score)); higher = more sensitive (stronger viability decrease); extreme values may be limits of the assay; conditions: BLU9931 100 nM; 72 h
Summary of the method: as §1

Row | Structure (SMILES) | drug sensitivity score (MDA-MB-453 [1]) | drug sensitivity score (MDA-MB-453 [2])
1 | CCCCCOC(=O)Nc1nc(=O)n([C@@H]2O[C@H](C)[C@@H](O)[C@H]2O)cc1F [Capecitabine] | 2.3 | 0.2
2 | Cc1cc2c(F)c(Oc3ncnn4cc(OC[C@@H](C)O)c(C)c34)ccc2[nH]1 [Brivanib] | 0 | 0
3 | O=C(NOCCO)c1ccc2cncn2c1Nc1ccc(I)cc1F [GDC-0623] | 0.4 | 0.5
4 | COC(=O)c1ccc2c(c1)NC(=O)/C2=C(\Nc1ccc(N(C)C(=O)CN2CCN(C)CC2)cc1)c1ccccc1 [Nintedanib] | 4.7 | 1.9
5 | O=C(Nc1cc(Oc2cc(F)c(NC(=O)C3(C(=O)Nc4ccc(F)cc4)CC3)cc2F)ccn1)C1CC1 [Altiratinib] | 7.1 | 3.5
6 | Nc1nc(Cl)nc2c1ncn2[C@@H]1O[C@H](CO)[C@@H](O)[C@@H]1F [Clofarabine] | 4.4 | 3.9
7 | CC(C)C(=O)Nc1ccc([N+](=O)[O-])c(C(F)(F)F)c1 [Flutamide] | 0 | 0
8 | CC(C)Cn1cnc2c(N)nc3ccccc3c21 [Imiquimod] | 0 | 0
9 | COc1cc2nccc(Oc3ccc(NC(=O)Nc4cc(C)on4)c(Cl)c3)c2cc1OC [Tivozanib] | 2.8 | 1.4
10 | CC1(C)CCC(CN2CCN(c3ccc(C(=O)NS(=O)(=O)c4ccc(NCC5CCOCC5)c([N+](=O)[O-])c4)c(Oc4cnc5[nH]ccc5c4)c3)CC2)=C(c2ccc(Cl)cc2)C1 [Venetoclax] | 0 | 0
11 | CC(=O)Nc1cccc(-n2c(=O)n(C3CC3)c(=O)c3c(Nc4ccc(I)cc4F)n(C)c(=O)c(C)c32)c1 [Trametinib] | 5.7 | 2.7
12 | Cc1c(Cn2c(C)nc3c(C(=O)O)cc(N4CCOCC4)cc32)cccc1C(F)(F)F | 0 | 0
13 | NC(=O)NO [Hydroxyurea] | 2.3 | 1.6
14 | CS(=O)(=O)N1CCN(Cc2cc3nc(-c4cccc5[nH]ncc45)nc(N4CCOCC4)c3s2)CC1 [Pictilisib] | 16.6 | 17.4
15 | COc1cc2c(Oc3ccc4[nH]c(C)cc4c3F)ncnc2cc1OCCCN1CCCC1 [Cediranib] | 0 | 0
16 | Cc1ncc(Cl)cc1NCc1ccc(C(=O)N[C@@H](CC2CCCC2)C(=O)NC2CC2)s1 | 0 | 0.5
17 | COCCNCc1ccc(-c2cc3nccc(Oc4ccc(NC(=S)NC(=O)Cc5ccc(F)cc5)cc4F)c3s2)nc1 [Glesatinib] | 0.7 | 0.5
18 | CCN1CCN(c2ccc(Nc3cc(N(C)C(=O)Nc4c(Cl)c(OC)cc(OC)c4Cl)ncn3)cc2)CC1 [Infigratinib] | 0 | 0
19 | COc1cc(Nc2ncc(F)c(Nc3ccc4c(n3)N(COP(=O)(O)O)C(=O)C(C)(C)O4)n2)cc(OC)c1OC [Fostamatinib] | 0.1 | 0
20 | N#Cc1ccnc(N2C(=O)CC[C@H]2C(=O)N(c2cncc(F)c2)[C@H](C(=O)NC2CC(F)(F)C2)c2ccccc2Cl)c1 [Ivosidenib] | 0 | 0
21 | O=C(c1cccc(Cl)c1F)N1CCN(Cc2cccc(Nc3nccs3)n2)CC1 [MK-8745] | 5.4 | 2.4
22 | NC1(c2ccc(-c3nc4ccn5c(=O)[nH]nc5c4cc3-c3ccccc3)cc2)CCC1 [MK-2206] | 8.3 | 8.9
23 | CCn1c(C(=O)N(C2CC2)C2CC2)cc2c3c(ncn3C)c(Nc3cc(C)n(C)n3)nc21 | 0 | 0

Row | Structure (SMILES) | drug sensitivity score (MDA-MB-453 [1]) | drug sensitivity score (MDA-MB-453 [2])
24 | CNC(=O)CN1CCC(Oc2cc3c(Nc4cccc(Cl)c4F)ncnc3cc2OC)CC1 [Sapitinib] | 2.2 | 4.8
25 | CC(C)Oc1ccc(C(=O)N[C@H](CNC(=O)CN(C)C)Cc2ccc(-c3cn4cccc([C@H](C)O)c4n3)cc2)cc1Cl | 14.3 | 8.8
26 | N#CCNC(=O)c1ccc(-c2ccnc(Nc3ccc(N4CCOCC4)cc3)n2)cc1 [Momelotinib] | 4.7 | 2.2
27 | O=C(O)c1ccc(CN2CCC(CN[C@@H]3C[C@H]3c3ccccc3)CC2)cc1 | 0.3 | 0
28 | CCOC(=O)C1=CCCC[C@H]1S(=O)(=O)Nc1ccc(F)cc1Cl [Resatorvid] | 0 | 0
29 | O=C(Nc1cccnc1)N1CCC(Cc2cccc(Oc3ccc(C(F)(F)F)cn3)c2)CC1 [PF-3845] | 1.8 | 2.2
30 | CCn1c(-c2nonc2N)nc2cnc(Oc3cccc(NC(=O)c4ccc(OCCN5CCOCC5)cc4)c3)cc21 | 3.9 | 3.8
31 | O=C(Nc1nc2cccc(-c3ccc(CN4CCS(=O)(=O)CC4)cc3)n2n1)C1CC1 [Filgotinib] | 2.9 | 2.5
32 | CNC(=O)c1ccc(C)c(-n2c(C)cc(OCc3ccc(F)cc3F)c(Br)c2=O)c1 | 0.1 | 0
33 | CNC(=O)c1ccccc1Nc1cc(Nc2ccc(N3CCOCC3)cc2OC)ncc1C(F)(F)F [VS-4718] | 1.9 | 0
34 | C=CCc1cccc(/C=N/NC(=O)CN2CCN(Cc3ccccc3)CC2)c1O [PAC-1] | 4.4 | 4.9
35 | O=C(/C=C\n1cnc(-c2cc(C(F)(F)F)cc(C(F)(F)F)c2)n1)NNc1ccccn1 [Verdinexor] | 4.7 | 4.9
36 | O=C(O)CCCCC(CCSCc1ccccc1)SCc1ccccc1 (stereo not given) [CPI-613] | 0 | 0
37 | C=CC(=O)Nc1cccc(Oc2nc(Nc3ccc(N4CCN(C)CC4)cc3)nc3ccsc23)c1 [Olmutinib] | 0.7 | 0.7
38 | O=C(/C=C/c1cccc(S(=O)(=O)Nc2ccccc2)c1)NO [Belinostat] | 21.3 | 20.2
39 | O=C(c1ccc(OCCN2CCCCC2)cc1)c1c(-c2ccc(O)cc2)sc2cc(O)ccc12 [Raloxifene] | 2.4 | 2.5
40 | NCCNc1ccc(NCCN)c2c1C(=O)c1ccncc1C2=O [Pixantrone] | 1 | 1
41 | CC(C)C[C@H](NC(=O)CNC(=O)c1cc(Cl)ccc1Cl)B(O)O [Ixazomib] | 9.4 | 7.4
42 | CC[C@H](Nc1ncnc2[nH]cnc12)c1nc2cccc(F)c2c(=O)n1-c1ccccc1 [Idelalisib] | 1.7 | 2
43 | C[C@@]1(C(=O)Nc2ccc(F)nc2)CCCN1c1nc(Nc2cc(C3CC3)n[nH]2)c2cccn2n1 | 0 | 0
44 | Nc1ccccc1NC(=O)c1ccc(CNC(=O)OCc2cccnc2)cc1 [Entinostat] | 9.2 | 8.7
45 | CNC(=O)c1cccc(-c2ccc3c(N4CCOC[C@@H]4C)nc(N4CCOC[C@@H]4C)nc3n2)c1 [Vistusertib] | 16.3 | 16.9
